Measurements reported in patent US10294202B2, “Pyrrolidinones as herbicides” (FMC Corporation, priority 2013, dated 2019).

Assays:
windgrass = experiment: Test D pre-/postemergence herbicide test; format: in vivo, Apera spica-venti; settings: Preemergence, scale 0 to 100 (0 no effect, 100 complete control)
Procedure, shortened: (§1)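 Visual 0–100 ratings (0 = no effect, 100 = complete control) versus controls, made 7 to 21 days after treatment in a controlled growth environment. Test chemicals in surfactant-containing non-phytotoxic solvent were applied preemergence to silt loam-sown seeds and postemergence to plants 2–18 cm tall.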

barnyardgrass = experiment: Test E preemergence herbicide test; format: in vivo, Echinochloa crus-galli; set-up: key: 0 = no effect, 100 = complete control
Procedure, shortened: (§2)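 Greenhouse preemergence test: seeds sown into silt loam received compound in a non-phytotoxic solvent mixture with surfactant. Plants grew 21 days before visual comparison with controls. Scores run from 0, no effect, to 100, complete control.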

crabgrass, large = experiment: Test E preemergence herbicide test; format: in vivo, Digitaria sanguinalis; set-up: key: 0 = no effect, 100 = complete control
Procedure, shortened: as §2

ragweed = experiment: Test E preemergence herbicide test; format: in vivo, Ambrosia elatior; set-up: key: 0 = no effect, 100 = complete control
Procedure, shortened: as §2

kochia = experiment: Test E preemergence herbicide test; format: in vivo, Kochia scoparia; set-up: key: 0 = no effect, 100 = complete control
Procedure, shortened: as §2

waterhemp = experiment: Test E preemergence herbicide test; format: in vivo, Amaranthus rudis; set-up: key: 0 = no effect, 100 = complete control
Procedure, shortened: as §2

galium = experiment: Test D pre-/postemergence herbicide test; format: in vivo, Galium aparine; settings: Preemergence; for Plant response rating, Galium: scale 0 to 100 (0 no effect, 100 complete control)
Procedure, shortened: as §1

buckwheat, wild = experiment: Test D pre-/postemergence herbicide test; format: in vivo, Polygonum convolvulus; settings: Preemergence; for Plant response rating, Buckwheat, Wild: scale 0 to 100 (0 no effect, 100 complete control)
Procedure, shortened: as §1

oat, wild = experiment: Test D pre-/postemergence herbicide test; format: in vivo, Avena fatua; settings: Preemergence, scale 0 to 100 (0 no effect, 100 complete control)
Procedure, shortened: as §1

foxtail, green = experiment: Test E preemergence herbicide test; format: in vivo, Setaria viridis; set-up: key: 0 = no effect, 100 = complete control
Procedure, shortened: as §2

## O=C1NC[C@H](c2cccc(C(F)(F)F)c2)[C@H]1C(=O)Nc1cccc(F)c1F [Compound 206]
windgrass; 62 g ai/ha
  Plant response rating, Windgrass: 75
windgrass; 125 g ai/ha
  Plant response rating, Windgrass: 90
windgrass; 31 g ai/ha
  Plant response rating, Windgrass: 75
windgrass; 250 g ai/ha
  Plant response rating, Windgrass: 90
barnyardgrass; 31 g ai/ha
  Plant response rating, Barnyardgrass: 70
barnyardgrass; 62 g ai/ha
  Plant response rating, Barnyardgrass: 75
barnyardgrass; 125 g ai/ha
  Plant response rating, Barnyardgrass: 95
barnyardgrass; 250 g ai/ha
  Plant response rating, Barnyardgrass: 98
crabgrass, large; 31 g ai/ha
  Plant response rating, Crabgrass, Large: 98
crabgrass, large; 62 g ai/ha
  Plant response rating, Crabgrass, Large: 98
crabgrass, large; 125 g ai/ha
  Plant response rating, Crabgrass, Large: 98
crabgrass, large; 250 g ai/ha
  Plant response rating, Crabgrass, Large: 100
ragweed; 31 g ai/ha
  Plant response rating, Ragweed: 0
ragweed; 62 g ai/ha
  Plant response rating, Ragweed: 0
ragweed; 125 g ai/ha
  Plant response rating, Ragweed: 0
ragweed; 250 g ai/ha
  Plant response rating, Ragweed: 75
kochia; 31 g ai/ha
  Plant response rating, Kochia: 0
kochia; 62 g ai/ha
  Plant response rating, Kochia: 0
kochia; 125 g ai/ha
  Plant response rating, Kochia: 50
kochia; 250 g ai/ha
  Plant response rating, Kochia: 80
waterhemp; 31 g ai/ha
  Plant response rating, Waterhemp: 50
waterhemp; 125 g ai/ha
  Plant response rating, Waterhemp: 50
waterhemp; 250 g ai/ha
  Plant response rating, Waterhemp: 50
galium; 62 g ai/ha
  Plant response rating, Galium: 40
galium; 125 g ai/ha
  Plant response rating, Galium: 50
galium; 31 g ai/ha
  Plant response rating, Galium: 10
galium; 250 g ai/ha, Galium, scale 0 to 100
  Plant response rating: 80
buckwheat, wild; 62 g ai/ha
  Plant response rating, Buckwheat, Wild: 65
buckwheat, wild; 125 g ai/ha
  Plant response rating, Buckwheat, Wild: 50
buckwheat, wild; 31 g ai/ha
  Plant response rating, Buckwheat, Wild: 45
buckwheat, wild; 250 g ai/ha, Buckwheat, Wild, scale 0 to 100
  Plant response rating: 55
oat, wild; 62 g ai/ha
  Plant response rating, Oat, Wild: 35
oat, wild; 125 g ai/ha
  Plant response rating, Oat, Wild: 40
oat, wild; 31 g ai/ha
  Plant response rating, Oat, Wild: 25
oat, wild; 250 g ai/ha
  Plant response rating, Oat, Wild: 55
foxtail, green; 31 g ai/ha
  Plant response rating, Foxtail, Green: 80
foxtail, green; 62 g ai/ha
  Plant response rating, Foxtail, Green: 98
foxtail, green; 125 g ai/ha
  Plant response rating, Foxtail, Green: 98
foxtail, green; 250 g ai/ha
  Plant response rating, Foxtail, Green: 98
